Data taken from patent US7425641B2, “Carboxylic acid amides, the preparation thereof and their use as pharmaceutical compositions” (Boehringer Ingelheim Pharma KG, priority 1999, dated 2008).
Structures can show the parent of a compound that is named as a salt.

biological target: T1, human factor Xa (Homo sapiens, UniProt P00742); experiment: inhibition of factor Xa, enzyme-kinetic measurement with chromogenic substrate; assay type: biochemical; settings: substrate Chromozym X 200 μMol/l, factor Xa (Roche) 0.175 U/ml, pH 8.0, 37° C., photometric at 405 nm
T1 construct: released from the colourless chromogenic substrate by human factor Xa; purchased Roche
Excerpt: For example, the compounds • A=2-(5-carbamimidoyl-2-hydroxy-phenyl)-N-[3-methyl-4-(pyrrolidin-1-yl-carbonyl)-phenyl]-acetamide-hydrochloride, • B=2-(2-benzyloxy-5-carbamimidoyl-phenyl)-N-(2-ethoxycarbonyl-ethyl)-N-[3-methyl-4-(pyrrolidin-1-yl-carbonyl)-phenyl]-acetamide-hydrochloride, • C=2-(2-hydroxy-5-carbamimidoyl-phenyl)-N-(2-ethoxycarbonyl-ethyl)-N-[3-methyl-4-(pyrrolidin-1-yl-carbonyl)-phenyl]-acetamide-hydrochloride, • D=2-(2-hydroxy-5-carbamimidoyl-phenyl)-N-(2-carboxy-ethyl)-N-[3-methyl-4-(pyrrolidin-1-yl-carbonyl)-phenyl]-acetamide-hydrochloride • E=2-(5-carbamimidoyl-2-hydroxy-phenyl)-N-[3-methyl-4-(piperidin-1-yl-carbonyl)-phenyl]-acetamide-hydrochloride and • F=2-(5-carbamimidoyl-2-hydroxy-phenyl)-N-[3-methyl-4-(2-aminosulphonyl-phenyl)-phenyl]-acetamide-hydrochloride, were investigated for their effect on the inhibition of factor Xa as follows: • Method: Enzyme-kinetic measurement with chromogenic substrate. The quantity of anpnitroaniline (pNA) released from the colourless chromogenic substrate by human factor Xa is determined photometrically at 405 nm. It is proportional to the activity of the enzyme used. The inhibition of the enzyme activity by the test substance I (in relation to the solvent control) is determined at various concentrations of test substance and from this the IC50 is calculated, as the concentration which inhibits the factor Xa used by 50%. • Material: • Tris(hydroxymethyl)-aminomethane buffer (100 mmol) of and sodium chloride (150 mMol), pH 8.0 • Factor Xa (Roche), spec. activity: 10 U/0.5 ml, final concentration: 0.175 U/ml per reaction mixture • Substrate Chromozym X (Roche), final concentration: 200 μMol/l per reaction mixture • Test substance: final concentration 100, 30, 10, 3, 1, 0.3, 0.1, 0.03, 0.01, 0.003, 0.001 μMol/l
Procedure: 10 μl of a 23.5-times concentrated starting solution of the test substance or solvent (control), 175 μl of tris(hydroxymethyl)-aminomethane buffer and 25 μl of Factor Xa working solution of 1.65 U/ml are incubated for 10 minutes at 37° C. After the addition of 25 μl of Chromozym X working solution ([…]) the sample is measured in a photometer (SpectraMax 250) at 405 nm for 150 seconds at 37° C.
• 1. Determining the maximum increase (deltaOD/minutes) over 3 measuring points. • 2. Determining the % inhibition based on the solvent control. • 3. Plotting a dosage/activity curve (% inhibition vs substance concentration). • 4. Determining the IC50 by interpolating the X value (substance concentration) of the dosage/activity curve at Y=50% inhibition.

T1 sequence (P00742 235-488 limits assumed): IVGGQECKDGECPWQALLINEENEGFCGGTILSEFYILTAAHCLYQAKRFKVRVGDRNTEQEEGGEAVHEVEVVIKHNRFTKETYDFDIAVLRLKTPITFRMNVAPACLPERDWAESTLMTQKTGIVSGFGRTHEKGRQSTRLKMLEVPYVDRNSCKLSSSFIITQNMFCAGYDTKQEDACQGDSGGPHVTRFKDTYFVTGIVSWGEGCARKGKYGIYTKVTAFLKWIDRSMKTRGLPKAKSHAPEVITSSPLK
T1 sequence (P00742 41-179 partner limits assumed): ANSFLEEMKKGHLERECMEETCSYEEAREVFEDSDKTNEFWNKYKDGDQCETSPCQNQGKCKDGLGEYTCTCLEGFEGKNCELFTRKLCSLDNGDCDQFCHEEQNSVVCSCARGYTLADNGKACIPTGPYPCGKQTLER

Point of comparison: `Cc1cc(NC(=O)Cc2cc(C(=N)N)ccc2O)ccc1C(=O)N1CCCCC1` [E, 2-(5-carbamimidoyl-2-hydroxy-phenyl)-N-[3-methyl-4-(piperidin-1-yl-carbonyl)-phenyl]-acetamide-hydrochloride], IC50 0.085 µM. Against it:
- CCOC(=O)CCN(C(=O)Cc1cc(C(=N)N)ccc1O)c1ccc(C(=O)N2CCCC2)c(C)c1 [C, 2-(2-hydroxy-5-carbamimidoyl-phenyl)-N-(2-ethoxycarbonyl-ethyl)-N-[3-methyl-4-(pyrrolidin-1-yl-carbonyl)-phenyl]-acetamide-hydrochloride] — within 1.5-fold, 0.12 µM
- CCOC(=O)CCN(C(=O)Cc1cc(C(=N)N)ccc1OCc1ccccc1)c1ccc(C(=O)N2CCCC2)c(C)c1 [B, 2-(2-benzyloxy-5-carbamimidoyl-phenyl)-N-(2-ethoxycarbonyl-ethyl)-N-[3-methyl-4-(pyrrolidin-1-yl-carbonyl)-phenyl]-acetamide-hydrochloride] — 8-fold higher, 0.68 µM
- Cc1cc(NC(=O)Cc2cc(C(=N)N)ccc2O)ccc1C(=O)N1CCCC1 [A, 2-(5-carbamimidoyl-2-hydroxy-phenyl)-N-[3-methyl-4-(pyrrolidin-1-yl-carbonyl)-phenyl]-acetamide-hydrochloride] — 2.8-fold lower, 0.03 µM
- Cc1cc(NC(=O)Cc2cc(C(=N)N)ccc2O)ccc1-c1ccccc1S(N)(=O)=O [F, 2-(5-carbamimidoyl-2-hydroxy-phenyl)-N-[3-methyl-4-(2-aminosulphonyl-phenyl)-phenyl]-acetamide-hydrochloride] — 3.1-fold higher, 0.26 µM
- Cc1cc(N(CCC(=O)O)C(=O)Cc2cc(C(=N)N)ccc2O)ccc1C(=O)N1CCCC1 [D, 2-(2-hydroxy-5-carbamimidoyl-phenyl)-N-(2-carboxy-ethyl)-N-[3-methyl-4-(pyrrolidin-1-yl-carbonyl)-phenyl]-acetamide-hydrochloride] — 10-fold higher, 0.85 µM

tested on: not given; experiment: not given; settings: not given

With `Cl.N=C(N)c1cccc(C(=O)NCc2ccc(Oc3ccncc3)cc2)c1` the melting point was 115 °C (dec.).

Point of comparison: `Cl.N=C(N)c1cccc(C(=O)NCc2ccc(NS(=O)(=O)c3ccccc3)cc2)c1`, melting point 266 °C. Against it:
- Cl.N=C(N)c1cccc(C(=O)NCc2ccc(NC(=O)c3ccccc3)cc2)c1 — lower, 190 to 215 °C
